Like-named read-outs stand apart in the source and are kept apart here.
Experiments:
CDK1/CycB = CDK1/CycB (Homo sapiens (Human), UniProt P06493); assay: CDK1/CycB kinase assay (Assay 1); format: biochemical; conditions: read-out: CDK1/CycB (Assay 1) Concentration of the half-maximal inhibition of the enzyme activity, IC50
Procedure: CDK1/CycB (200 ng/measuring point) was incubated for 10 min at 22° C. in the presence of different concentrations of test substances (0 and within the range 0.001-10 μM) in assay buffer [50 mM Tris/HCl pH 8.0; 10 mM MgCl2; 0.1 mM Na ortho-vanadate; 1.0 mM dithiothreitol; 0.5 μM adenosine trisphosphate (ATP); 10 μg/measuring point histone IIIS; 0.2 μCi/measuring point ^33P-gamma ATP; 0.05% NP40; 1.25% dimethyl sulphoxide]. The reaction was stopped by adding EDTA solution (250 mM; pH 8.0; 15 μl/measuring point).
From each reaction mixture, 15 μl were applied to P30 filter strips (Wallac), and unincorporated ^33P-ATP was removed by washing the filter strips three times, for 10 min in each case, in 0.5% phosphoric acid. After drying the filter strips for 1 hour at 70°, the filter strips were covered with scintillator strips (MeltiLex™ A, Wallac) and stoved for 1 hour at 90° C. The amount of incorporated ^33P (substrate phosphorylation) was determined by scintillation measurement in a gamma-radiation measuring instrument (Wallac). […] The IC50 values were determined by means of a 4-parameter fit using the company's own software.

CDK2/CycE = CDK2/CycE (Homo sapiens (Human), UniProt P24941); assay: CDK2/CycE kinase assay (Assay 2); format: biochemical; conditions: read-out: CDK2/CycE (Assay 2) Concentration of the half-maximal inhibition of the enzyme activity, IC50
Procedure: Recombinant CDK2 and CycE-GST fusion proteins, purified from baculovirus-infected insect cells (Sf9), were purchased from ProQinase GmbH, Freiburg. Histone IIIS, which was used as kinase substrate, was purchased from Sigma.
CDK2/CycE (50 mg/measuring point) was incubated for 10 min at 22° C. in the presence of different concentrations of test substances (0 μM, and within the range 0.001-10 μM) in assay buffer [50 mM Tris/HCl pH 8.0; 10 mM MgCl2; 0.1 mM Na ortho-vanadate; 1.0 mM dithiothreitol; 0.5 μM adenosine trisphosphate (ATP); 10 μg/measuring point histone IIIS; 0.2 μCi/measuring point ^33P-gamma ATP; 0.05% NP40; 1.25% dimethyl sulphoxide]. The reaction was stopped by adding EDTA solution (250 mM; pH 8.0; 15 μl/measuring point).
(§2) From each reaction mixture, 15 μl were applied to P30 filter strips (Wallac), and unincorporated ^33P-ATP was removed by washing the filter strips three times, for 10 min in each case, in 0.5% phosphoric acid. After drying the filter strips for 1 hour at 70° C., the filter strips were covered with scintillator strips (MeltiLex™ A, Wallac) and stoved for 1 hour at 90° C. The amount of incorporated ^33P (substrate phosphorylation) was determined by scintillation measurement in a gamma-radiation measuring instrument (Wallac). […] The IC50 values were determined by means of a 4-parameter fit using the company's own software.

CDK4/CycD1 = CDK4/CycD1 (Homo sapiens (Human), UniProt P11802); assay: CDK4/CycD kinase assay (Assay 3); format: biochemical; conditions: read-out: CDK4/CycD (Assay 3) Concentration of the half-maximal inhibition of the enzyme activity, IC50
Chain of CDK4/CycD1 (P11802 whole entry, the tested form may be a part): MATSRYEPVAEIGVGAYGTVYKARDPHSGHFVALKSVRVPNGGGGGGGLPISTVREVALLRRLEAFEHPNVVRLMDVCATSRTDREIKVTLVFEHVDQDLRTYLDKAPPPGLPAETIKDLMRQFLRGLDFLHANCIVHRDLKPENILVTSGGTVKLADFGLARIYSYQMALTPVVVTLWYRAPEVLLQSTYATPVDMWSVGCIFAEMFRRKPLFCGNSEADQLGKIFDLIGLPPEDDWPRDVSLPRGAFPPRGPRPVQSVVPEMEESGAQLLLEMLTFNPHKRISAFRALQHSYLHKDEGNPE
Chain of CDK4/CycD1 (P24385 whole entry partner, the tested form may be a part): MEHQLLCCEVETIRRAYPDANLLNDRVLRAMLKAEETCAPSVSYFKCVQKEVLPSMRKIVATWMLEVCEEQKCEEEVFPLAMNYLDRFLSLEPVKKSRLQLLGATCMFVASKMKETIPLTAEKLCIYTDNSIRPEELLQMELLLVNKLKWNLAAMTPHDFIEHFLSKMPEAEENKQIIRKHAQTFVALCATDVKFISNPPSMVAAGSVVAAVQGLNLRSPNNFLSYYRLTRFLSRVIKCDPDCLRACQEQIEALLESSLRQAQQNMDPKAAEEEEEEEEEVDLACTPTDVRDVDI
Procedure: Recombinant CDK4 and CycD1-GST fusion proteins, purified from baculovirus-infected insect cells (Sf9), were purchased from ProQinase GmbH, Freiburg. CDK4/CycD1 (250 ng/measuring point) was incubated for 3 hours at 22° C. in the presence of different concentrations of test substances (0 μM, and within the range 0.001-10 μM) in 31 μl of assay buffer [50 mM Hepes pH 7.0; 2.5 mM MnCl; 0.05 mM Na ortho-vanadate; 1.0 mM dithiothreitol; 0.25 μM adenosine trisphosphate (ATP); 0.5 μM biotinylated myelin basic protein (bio-MPB, GE Healthcare); 0.05 μCi/measuring point ^33P-gamma ATP; 0.005% NP40; 0.025% bovine serum albumin; 3% dimethyl sulphoxide]. The reaction was stopped by adding 50 μl of stop-mix [100 μM ATP; 10 mM EDTA pH 8.0; 0.2% Triton X100; 0.125 mg of streptavidin-SPA Beads (GE Healthcare)]. After incubation for 10 min at room temperature, the SPA beads were pelleted by centrifugation (10 min; 1500 g). The amount of incorporated ^33P (substrate phosphorylation) was determined by scintillation measurement in a beta-radiation measuring instrument (Microbeta, Perkin Elmer).

[1] = molecular target: VEGF receptor tyrosine kinase-2 (VEGF-R2) (Homo sapiens (Human), UniProt P35968); assay: VEGF receptor-2 kinase assay (Assay 4); format: biochemical; conditions: read-out: VEGF-R2 (Assay 4) Concentration of the half-maximal inhibition of the enzyme activity, IC50
Chain of VEGF receptor tyrosine kinase-2 (VEGF-R2) (P35968 20-1356, species assumed): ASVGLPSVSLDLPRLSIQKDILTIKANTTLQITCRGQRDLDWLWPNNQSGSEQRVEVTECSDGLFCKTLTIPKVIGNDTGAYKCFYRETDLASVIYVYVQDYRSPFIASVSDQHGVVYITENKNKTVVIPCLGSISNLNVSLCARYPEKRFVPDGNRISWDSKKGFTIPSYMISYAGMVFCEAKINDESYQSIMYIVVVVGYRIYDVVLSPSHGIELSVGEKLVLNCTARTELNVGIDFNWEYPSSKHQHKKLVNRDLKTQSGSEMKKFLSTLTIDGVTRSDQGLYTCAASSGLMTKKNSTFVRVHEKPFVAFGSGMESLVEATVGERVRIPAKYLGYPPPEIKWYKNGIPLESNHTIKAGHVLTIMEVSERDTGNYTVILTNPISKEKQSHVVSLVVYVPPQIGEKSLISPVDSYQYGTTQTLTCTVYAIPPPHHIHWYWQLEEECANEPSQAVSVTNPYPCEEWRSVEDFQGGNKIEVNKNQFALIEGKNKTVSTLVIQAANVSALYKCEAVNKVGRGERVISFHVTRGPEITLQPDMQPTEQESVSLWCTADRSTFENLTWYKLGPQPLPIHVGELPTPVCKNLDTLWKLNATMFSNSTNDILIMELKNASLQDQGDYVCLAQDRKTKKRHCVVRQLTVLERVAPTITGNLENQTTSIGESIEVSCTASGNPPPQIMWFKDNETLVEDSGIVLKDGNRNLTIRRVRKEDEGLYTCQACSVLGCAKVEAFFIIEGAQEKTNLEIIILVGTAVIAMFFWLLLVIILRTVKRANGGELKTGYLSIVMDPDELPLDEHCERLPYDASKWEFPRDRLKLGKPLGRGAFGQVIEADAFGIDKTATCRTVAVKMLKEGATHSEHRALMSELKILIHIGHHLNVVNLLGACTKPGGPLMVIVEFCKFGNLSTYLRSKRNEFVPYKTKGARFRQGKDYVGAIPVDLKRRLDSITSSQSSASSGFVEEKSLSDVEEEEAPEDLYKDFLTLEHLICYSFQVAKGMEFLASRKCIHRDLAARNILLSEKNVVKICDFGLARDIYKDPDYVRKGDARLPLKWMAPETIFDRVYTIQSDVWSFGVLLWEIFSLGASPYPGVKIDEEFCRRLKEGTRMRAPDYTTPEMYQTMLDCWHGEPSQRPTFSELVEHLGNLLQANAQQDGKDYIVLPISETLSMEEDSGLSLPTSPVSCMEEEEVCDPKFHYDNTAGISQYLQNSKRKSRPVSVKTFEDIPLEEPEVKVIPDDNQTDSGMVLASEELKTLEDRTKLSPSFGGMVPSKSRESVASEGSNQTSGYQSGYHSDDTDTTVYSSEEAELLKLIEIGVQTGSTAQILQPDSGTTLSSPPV
Procedure: Recombinant VEGF receptor tyrosine kinase-2 was purified as GST fusion protein from baculovirus-infected insect cells (Sf9). Poly-(Glu4Tyr), which was used as kinase substrate, was purchased from Sigma.
VEGF receptor tyrosine kinase (90 ng/measuring point) was incubated for 10 min at 22° C. in the presence of different concentrations of test substances (0 μM, and within the range 0.001-10 μM) in 30 μl of assay buffer [40 mM Tris/HCl pH 5.5; 10 mM MgCl2; 1 mM MnCl2; 3 μM Na ortho-vanadate; 1.0 mM dithiothreitol; 8 μM adenosine trisphosphate (ATP); 0.96 μg/measuring point poly-(Glu4Tyr); 0.2 μCi/measuring point ^33P-gamma ATP; 1.4% dimethyl sulphoxide]. The reaction was stopped by adding EDTA solution (250 mM; pH 8.0; 15 μl/measuring point).
as §2

[2] = tested on: HeLa-MaTu-ADR (HeLa-MaTu-MDR, multiple drug-resistant human cervix carcinoma cells); assay: Proliferation assay (Assay 5), HeLa-MaTu-ADR; format: cell-based; conditions: 96 h, read-out: Concentration of the half-maximal inhibition of the cell proliferation, IC50
Excerpt: (§1) Cultivated human tumour cells (MCF7, hormone-independent human breast carcinoma cells, acquired from ATCC HTB22; NCI-H460, human non-small-cell lung carcinoma cells, ATCC HTB-177; DU 145, hormone-independent human prostrate carcinoma cells, ATCC HTB-81; HeLa-MaTu, human cervix carcinoma cells, EPO-GmbH, Berlin; HeLa-MaTu-MDR, multiple drug-resistant human cervix carcinoma cells, EPO-GmbH, Berlin; Caco-2, human colon carcinoma cells, ATCC HTB-37; B16F10, murine melanoma cell, ATCC CRL-6475) were plated out at a density of ca. 1000-5000 cells/measuring point, depending on the growth rate of the particular cells, in a 96-well multititre plate in 200 μl of the corresponding growth medium. After 24 hours, the cells of one plate (zero-point plate) were stained with crystal violet (see below), whereas the medium of the other plates was replaced with fresh culture medium (200 μl), to which the test substances had been added at different concentrations (0 μM, and in the range 0.003-3 μM; the final concentration of the solvent dimethyl sulphoxide was 0.5%). The cells were incubated for 4 days in the presence of the test substances. Cell proliferation was determined by staining the cells with crystal violet: the cells were fixed by adding 20 μl/measuring point of an 11% glutaraldehyde solution for 15 min at room temperature. After washing the fixed cells with water three times, the plates were dried at room temperature. The cells were stained by adding 100 μl/measuring point of a 0.1% crystal violet solution (pH adjusted to pH 3 by adding acetic acid). After washing the stained cells with water three times, the plates were dried at room temperature. The dye was dissolved by adding 100 μl/measuring point of a 10% acetic acid solution. The extinction was determined photometrically at a wavelength of 595 nm. […] The IC50 values were determined by means of a 4-parameter fit using the company's own software.

[3] = tested on: MCF7, hormone-independent human breast carcinoma cells; assay: Proliferation assay (Assay 5), MCF7; format: cell-based; conditions: read-out: Concentration of the half-maximal inhibition of the cell proliferation, IC50
Excerpt: as §1

[4] = tested on: NCI-H460, human non-small-cell lung carcinoma cells; assay: Proliferation assay (Assay 5), NCI-H460; format: cell-based; conditions: read-out: Concentration of the half-maximal inhibition of the cell proliferation, IC50
Excerpt: as §1

[5] = tested on: DU 145, hormone-independent human prostrate carcinoma cells; assay: Proliferation assay (Assay 5), DU145; format: cell-based; conditions: DU-145, 96 h, read-out: Concentration of the half-maximal inhibition of the cell proliferation, IC50
Excerpt: as §1

[6] = tested on: Caco-2, human colon carcinoma cells; assay: Proliferation assay (Assay 5), Caco-2; format: cell-based; conditions: read-out: Concentration of the half-maximal inhibition of the cell proliferation, IC50
Excerpt: as §1

[7] = tested on: B16F10, murine melanoma cell; assay: Proliferation assay (Assay 5), B16F10; format: cell-based; conditions: Mus musculus, B16-F10, 96 h, read-out: Concentration of the half-maximal inhibition of the cell proliferation, IC50
Excerpt: as §1

[8] = Permeability assay (Assay 6), Caco-2 monolayer; format: in vitro ADME; conditions: human; for efflux ratio at 90 min: Caco-2, read-out: ratio (b-a)/(a-b); for Papp A→B at 90 min / Papp B→A at 90 min: Caco-2, 90 min, 37° C.; for Papp A→B at 90 min: read-out: Permeation coefficient, Papp apical-basolateral (a-b); for Papp B→A at 90 min: read-out: Permeation coefficient, Papp basolateral-apical (b-a)
Procedure: The Caco-2 monolayer is a barrier between 2 compartments. The cells here behave similarly to the small intestine cells. Active ingredients can be transported either paracellularly or transcellularly. Here, the transport takes place in most cases from apical (luminal) to basolateral (serosal). In the case of p-glycoprotein substrates, back-transport from basolateral to apical is also usually observed.
Experimental procedure: The permeability test is carried out both from apical to basolateral and also from basolateral to apical. For this, two filters are used per substance; incubation takes place over 90 min at 37° C. in a water bath. […] As reference substances, (i) PEG 4000 are used as hydrophilic marker. On account of its high molecular weight, it is unable to permeate into the cell membrane or into the pores of the tight junctions. PEG 4000 is therefore a marker of the intactness of the cell monolayer and the narrowness of the tight junctions. PEG 4000 is not absorbed in humans. (ii) Clonidine is known as completely absorbed substances in people (100%). They serve as markers for very highly permeable substances with Papp values above 100 nm/s. (iii) Digoxin is a known Pgp substrate. […] In the reverse experiment (basolateral to apical), the Papp values should be higher by a factor of about 10 as a result of the active directional transport into the apical compartment.
The permeation coefficient Papp is used to estimate the absorption in people according to the following scheme: […]

Caco-2 monolayer = conditions: reference substance, cited from earlier work
[9] = reference substance; cited from earlier work
[10] = tested on: HeLa-MaTu, human cervix carcinoma cells; assay: Proliferation assay (Assay 5), HeLa-MaTu; format: cell-based; conditions: 96 h, read-out: Concentration of the half-maximal inhibition of the cell proliferation, IC50
Excerpt: as §1

Chain of CDK1/CycB (P06493 whole entry): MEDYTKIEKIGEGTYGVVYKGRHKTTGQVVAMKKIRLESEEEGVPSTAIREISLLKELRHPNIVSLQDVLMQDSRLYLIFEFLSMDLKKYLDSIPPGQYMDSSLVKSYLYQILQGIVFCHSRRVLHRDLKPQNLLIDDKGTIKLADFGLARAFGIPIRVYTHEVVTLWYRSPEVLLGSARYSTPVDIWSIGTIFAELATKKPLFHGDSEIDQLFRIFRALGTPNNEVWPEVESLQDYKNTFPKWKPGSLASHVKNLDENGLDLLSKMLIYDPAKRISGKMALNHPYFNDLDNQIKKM
Chain of CDK1/CycB (P14635 whole entry partner): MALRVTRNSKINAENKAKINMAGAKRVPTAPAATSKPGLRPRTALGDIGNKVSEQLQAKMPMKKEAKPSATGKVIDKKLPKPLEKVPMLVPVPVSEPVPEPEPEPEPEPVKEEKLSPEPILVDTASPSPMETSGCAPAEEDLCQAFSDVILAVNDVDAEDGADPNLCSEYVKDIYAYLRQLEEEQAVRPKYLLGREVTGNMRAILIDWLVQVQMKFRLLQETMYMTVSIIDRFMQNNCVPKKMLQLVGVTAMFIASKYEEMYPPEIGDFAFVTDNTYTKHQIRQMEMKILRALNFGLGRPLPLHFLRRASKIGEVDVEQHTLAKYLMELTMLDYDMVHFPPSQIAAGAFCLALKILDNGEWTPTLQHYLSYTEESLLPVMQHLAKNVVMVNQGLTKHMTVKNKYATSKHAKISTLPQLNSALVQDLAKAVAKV

| Compound | IC50 (CDK1/CycB) | IC50 (CDK2/CycE) | IC50 (CDK4/CycD1) | IC50 ([2]; HeLa-MaTu-ADR, 4 days) | IC50 ([3]; 96 h, MCF7, 4 days) | IC50 ([4]; 96 h, NCI-H460, 4 days) | IC50 ([5]; DU145, 4 days) | IC50 ([6]; 96 h, Caco-2, 4 days) | IC50 ([7]; B16F10, 4 days) | efflux ratio at 90 min [8] | Papp A→B at 90 min [8] | Papp B→A at 90 min [8] | IC50 ([10]; HeLa-MaTu, 4 days) | other results |
| --- | --- | --- | --- | --- | --- | --- | --- | --- | --- | --- | --- | --- | --- | --- |
| Clc1cccc(Cl)c1N=C1NCCN1 [Clonidine] | – | – | – | – | – | – | – | – | – | – | – | – | – | Papp values of reference marker (Caco-2 monolayer): above 100 nm/s; absorbed in people [9]: 100% |
| C[C@H]1O[C@@H](O[C@H]2[C@@H](O)C[C@H](O[C@H]3[C@@H](O)C[C@H](O[C@H]4CC[C@@]5(C)[C@H](CC[C@@H]6[C@@H]5C[C@@H](O)[C@]5(C)[C@@H](C7=CC(=O)OC7)CC[C@]65O)C4)O[C@@H]3C)O[C@@H]2C)C[C@H](O)[C@@H]1O [Digoxin] | – | – | – | – | – | – | – | – | – | – | – | – | – | permeability from apical to basolateral (Caco-2 monolayer; Pgp substrate): low permeability |
| C[C@@H](O)[C@@H](C)Oc1nc(Nc2ccc(S(C)(=O)=O)cc2)ncc1C(F)(F)F [Example 2, (2R,3R)-3-[2-(4-Methanesulphonylphenylamino)-5-trifluoromethylpyrimidin-4-yloxy]butan-2-ol] | – | – | 24 nM | – | – | – | – | – | – | – | 19.6 ×10⁻⁶ cm/s | 19.4 ×10⁻⁶ cm/s | – | IC50 [10]: 14 nM; IC50 [2]: 14 nM; IC50 ([3]; MCF7, 96 h): 35 nM; IC50 ([4]; NCI-H460, 96 h): 38 nM; IC50 [5]: 34 nM; IC50 ([6]; Caco-2, 96 h): 66 nM; IC50 [7]: 70 nM |

More lines, main results first:

| IC50 (CDK1/CycB) | IC50 (CDK2/CycE) | IC50 (CDK4/CycD1) | IC50 ([2]; HeLa-MaTu-ADR, 4 days) | IC50 ([3]; 96 h, MCF7, 4 days) | IC50 ([4]; 96 h, NCI-H460, 4 days) | IC50 ([5]; DU145, 4 days) | IC50 ([6]; 96 h, Caco-2, 4 days) | IC50 ([7]; B16F10, 4 days) | efflux ratio at 90 min [8] | Papp A→B at 90 min [8] | Papp B→A at 90 min [8] | IC50 ([10]; HeLa-MaTu, 4 days) | Compound | other results |
| --- | --- | --- | --- | --- | --- | --- | --- | --- | --- | --- | --- | --- | --- | --- |
| 4 nM | 4 nM | 35 nM | 32 nM | 43 nM | 34 nM | 75 nM | 76 nM | 89 nM | 1 | 18 ×10⁻⁶ cm/s | 17.8 ×10⁻⁶ cm/s | – | C[C@@H](O)[C@@H](C)Nc1nc(Nc2ccc(S(C)(=O)=O)cc2)ncc1C(F)(F)F [C2, (2R,3R)-3-[2-(4-Methanesulphonylphenylamino)-5-trifluoromethylpyrimidin-4-ylamino]butan-2-ol, reference compound] | IC50 [1]: 92 nM |
| 16 nM | 16 nM | 20 nM | 9 nM | 23 nM | 41 nM | 17 nM | 45 nM | 49 nM | 0.9 | 16.5 ×10⁻⁶ cm/s | 14.7 ×10⁻⁶ cm/s | 11 nM | C[C@@H](O)[C@@H](C)Oc1nc(Nc2ccc(S(=O)(=O)C3CC3)cc2)ncc1C(F)(F)F [Example 1, (2R,3R)-3-[2-(4-Cyclopropanesulphonylphenylamino)-5-trifluoromethylpyrimidin-4-yloxy]butan-2-ol] | – |
| 32 nM | 12 nM | 78 nM | 39 nM | 160 nM | 140 nM | 74 nM | 180 nM | 270 nM | – | – | – | 35 nM | C[C@@H](Oc1nc(Nc2ccc(S(C)(=O)=O)cc2)ncc1C(F)(F)F)C(C)(C)O [Example 3, (R)-3-[2-(4-Methanesulphonylphenylamino)-5-trifluoromethylpyrimidin-4-yloxy]-2-methylbutan-2-ol] | – |
